# What was measured:
# MIN6 cells = assay: Insulinotropic activity: insulin secretion from MIN6 cells (ELISA based assay); assay type: cell-based, mouse; conditions: for Insulin Secretion: standard error in bracket
# Experimental: Insulinotropic activity of the NDS100178 and NDS100179 was measured by a well-optimized ELISA based Assay (Shantani Protocol #5205) described below.
# Materials • MIN6Cell (source: National Center for Cell Sciences, Pune) • Mouse Insulin ELISA kit (Mercodia, 10-1247-01) • Plate Shaker (MixMatefromEppendorf) • HEPES Balanced Krebs-Ringer bicarbonate buffer (components as follows)
# Method • i. Seed proliferating culture of MIN-6 cells into a 6 well plate with almost half the confluency two days before the experiment. • ii. One the day of Insulin induction experiment, the cells should become almost confluent and are in good condition. • iii. On the day of experiment, first prepare 1×KRB-HEPES buffer with 0.1% BSA (for rinse) and without BSA (for equilibration and insulin induction) as described in the materials. • iv. Prepare equilibration buffer: 1×KRB-HEPES buffer without BSA containing 3.3 mM glucose (to bring down the glucose level of all cells to the same level). For example, add 66 ul 1 M glucose stock solution to 20 ml KRB-HEPES buffer without BSA. • v. Prepare the stimulating buffer (insulin induction): 1×KRB-HEPES buffer without BSA containing the defined glucose level (in most cases, it will be 16.7 mM glucose) and the desired concentration of molecule. • vi. Pre warm all the buffers to 37° C. in the water bath (at 15 minutes). • vii. Remove media from all wells, rinse each well twice with 2 ml KRB-HEPES buffer containing 0.1% BSA. • viii. Add 2 ml of equilibration buffer in each well and incubate at 37° C. for half an hour. • ix. After the incubation add 2 ml of stimulating buffer in respective wells (properly labelled) and incubate 37° C. for 1 hour. • x. In the meanwhile, turn on the refrigerated centrifuge and set the temperature to 4° C. Take out enzyme conjugate, diluent buffer, Calibrator 0 and stripes needed (for example, two stripes for 8 samples to be run in duplicate) from Mercodia ELISA kit box (store at 4° C.) and warm up them to RT. • xi. […] Centrifuge the tubes at 600 g for 5 min. • xiii. Take out 500 ul in fresh properly labelled precooled tubes. • xiv. Now dilute the samples 1:30 in calibrator 0 i.e. add 3 ul of each sample to 87 ul of Calibrator 0 in 8 different properly labelled 0.5 ml tubes. Mix them well. • xv. Prepare 1× enzyme conjugate buffer, i.e. mix 180 ul enzyme (11×) with 1800 ul diluent buffer for ELISA of two stripes. • xvi. Add 10 ul of each sample (diluted, in duplicate) in the two adjacent wells. Be careful not to touch the bottom. • xvii. Carefully add 100 ul of Enzyme Conjugate buffer (1×) to each well and incubate on a plate shaker (eppendorf MixMate) at 800 rpm for 2 hours at 25° C. • xviii. 45 min before the incubation is over take out wash buffer, substrate TMB and Stop solution. Keep them at RT. • xix. 5 min before the incubation is over prepare 1× wash buffer (21×), i.e. 40 ml distilled water+2 ml (21×) wash buffer in a reservoir. • xx. After the incubation is over, wash each well 7 times with 350 ul wash buffer. Use a multichannel (175 ul). • xxi. After the washing add 200 uL substrate TMB solution in each well. Maintain a proper pace. • xxii. Allow to incubate for 15 min. Set the program on the plate reader, to take absorbance read at 450 nm. Add a 5 sec shake step to allow proper mixing. • xxiii. After incubation immediately add 50 ul Stop solution in each well at same pace and take absorbance read at 450 nm.
# Assay conditions were kept same in all the assays. The difference in absorption-value for control experiment (no treatment with molecule) over different days is attributed to cell culture conditions. Other varying conditions are specified in the respective graphs.
# [Note: If not mentioned specifically, HG=High Glucose (16.7 mM), LG=Low Glucose (3.3 mM)]
# LTA4H = biological target: T1, LTA4H (Homo sapiens, UniProt P09960); assay: LTA4H inhibition; assay type: biochemical; conditions: read-out: IC50 against LTA4H
# T1 sequence (P09960 1-611): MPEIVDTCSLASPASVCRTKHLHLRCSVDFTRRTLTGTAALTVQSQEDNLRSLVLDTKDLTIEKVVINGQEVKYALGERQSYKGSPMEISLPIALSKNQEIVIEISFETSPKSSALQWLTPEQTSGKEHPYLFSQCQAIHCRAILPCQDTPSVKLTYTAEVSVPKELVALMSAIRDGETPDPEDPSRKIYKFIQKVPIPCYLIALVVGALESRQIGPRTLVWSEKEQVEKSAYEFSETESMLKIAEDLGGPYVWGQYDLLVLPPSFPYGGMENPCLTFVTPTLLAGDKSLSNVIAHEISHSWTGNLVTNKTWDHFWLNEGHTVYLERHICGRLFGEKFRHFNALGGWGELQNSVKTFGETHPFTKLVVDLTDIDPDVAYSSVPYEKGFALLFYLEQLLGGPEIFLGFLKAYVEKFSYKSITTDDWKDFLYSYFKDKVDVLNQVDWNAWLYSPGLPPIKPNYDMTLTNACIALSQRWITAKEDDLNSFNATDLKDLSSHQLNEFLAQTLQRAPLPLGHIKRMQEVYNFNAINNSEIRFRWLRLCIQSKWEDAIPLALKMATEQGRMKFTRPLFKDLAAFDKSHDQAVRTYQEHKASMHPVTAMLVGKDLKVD
# Experimental: NDS100178 series of compound primarily activates imidazoline receptor […]. In high glucose condition this activation leads to formation of Diacylglycerol (DAG). DAG subsequently generates Arachidonic Acids (AA) in the cell. Metabolites of AA especially epoxyeicosatrienenoic acids (EETs) and hydroxyeicosatetrenoic acids (HETEs) induce exocytosis leading to increased secretion of insulin from the cells. The other major signalling pathway that can alter the glucose/DAG induced AA pool is the leukotriene pathway, that, by metabolizing AA into different leukotrienes and not EET and HETE can suppress its insulin secretion effect. Molecules that can inhibit metabolism of AA through leukotriene pathway can maintain AA pool leading to its metabolism only through EETs and HETEs and thus can enhance increase insulin secretion. One of the major enzymes in leukotriene pathway is LTA4H hydrolase that converts LTA4 into LTB4, a AA derivative that suppresses insulin secretion. A novel finding that inhibiting LTA4H can enhance insulin secretion has been established by the inventors. NDS100178 inhibits LTA4H (IC50<500 nM) while the IC50 against LTA4H target of compound 6 from patent US20040009976 Compound: 5-Chloro-2-methyl-3-(4,5-dihydro-1-H-imidazol-2-yl)-1H-indole) is above 10 uM.
# Metabolic study in HLM = assay type: in vitro ADME
# CYP3A4 = CYP3A4 (Homo sapiens, UniProt P08684); assay: CYP3A4 inhibition; assay type: in vitro ADME
# [1] = Metabolic study and intrinsic clearance in MLM; assay type: in vitro ADME
# Kinetic solubility = assay type: physicochemical; conditions: kinetic from dmso stock
# Sequence of CYP3A4 (P08684 whole entry): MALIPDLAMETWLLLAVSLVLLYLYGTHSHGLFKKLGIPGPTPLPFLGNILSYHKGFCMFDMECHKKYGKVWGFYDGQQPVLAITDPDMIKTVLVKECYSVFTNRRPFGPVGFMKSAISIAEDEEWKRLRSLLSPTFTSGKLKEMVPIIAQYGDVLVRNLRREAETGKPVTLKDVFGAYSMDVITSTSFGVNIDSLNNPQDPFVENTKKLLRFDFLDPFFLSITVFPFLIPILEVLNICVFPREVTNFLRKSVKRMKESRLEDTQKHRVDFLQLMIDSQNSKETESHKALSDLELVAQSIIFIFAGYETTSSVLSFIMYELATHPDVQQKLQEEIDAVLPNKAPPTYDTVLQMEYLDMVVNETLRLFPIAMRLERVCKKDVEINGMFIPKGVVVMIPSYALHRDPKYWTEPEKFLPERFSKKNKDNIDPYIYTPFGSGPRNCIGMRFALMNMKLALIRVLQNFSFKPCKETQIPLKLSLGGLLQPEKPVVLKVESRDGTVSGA
SMILES,"Insulin Secretion (MIN6 cells; MIN6 cells, compound 0.1 μM)","Insulin Secretion (MIN6 cells; MIN6 cells, compound 1.0 μM)",IC50 (LTA4H) [µM],Metabolic Study HLM Mean % PCR* (Metabolic study in HLM) [%],CYP3A4 Inhibition (CYP3A4),Intrinsic Clearnace MLM [1],Metabolic Study MLM Mean % PCR* [1] [%],solubility kinetic (Kinetic solubility) [µM],"insulin secretion from MIN6 cells in high glucose conditions (MIN6 cells; 33 uM, 1 hour, high glucose (16.7 mM), three different days)","insulin secretion over control (MIN6 cells; MIN6 cells, 10 nM)","insulin secretion over control (MIN6 cells; MIN6 cells, 50 nM)","increase in insulin secretion (MIN6 cells; MIN6 cells, 100 nM)","Insulin Secretion (MIN6 cells; MIN6 cells, compound 10.0 μM)","glucose dependence of insulinotropic activity (MIN6 cells; MIN6 cells, high glucose vs lower glucose conditions)",melting point [°C],IC50 (CYP3A4) [µM]
"Cc1[nH]c2ccc(Cl)cc2c1C1=NCCN1 [Example-6 of Patent US20040009976, 5-Chloro-2-methyl-3-(4,5-dihydro-1-H-imidazol-2-yl)-1H-indole, reference compound]",1.39 (0.15) ng/ml,3.68 (2.11) ng/ml,> 10,99.11,No inhibition,21.3 μl/min/mg of protein,64.83,196,,,,,,,,
"Clc1ccc2[nH]nc(C3=NCCN3)c2c1 [NDS100178, 5-Chloro-3-(4,5-dihydro-1H-imidazol-2-yl)-1H-indazole]",8.91 (1.6) ng/ml,12.49 (1.9) ng/ml,< 0.5,79.70,No inhibition,80.8 μl/min/mg of protein,38.84,214,significant increase in the insulin secretion,No significant difference over the control,No significant difference over the control,more than 100%,35.09 (4.0) ng/ml,glucose dependent,248 to 249,
"c1ccc2c(C3=NCCN3)n[nH]c2c1 [NDS100277, 3-(4,5-dihydro-1H-imidazol-2-yl)-1H-indazole]",11.87 (0.8) ng/ml,14.66 (0.4) ng/ml,,,,,,,,,,,20.96 (1.7) ng/ml,,,
"Cn1nc(C2=NCCN2)c2ccccc21 [NDS100278, 3-(4,5-dihydro-1H-imidazol-2-yl)-1-methyl-1H-indazole]",12.43 (1.1) ng/ml,10.80 (0.2) ng/ml,,,,,,,,,,,13.16 (1.6) ng/ml,,,
"c1ccc2c(C3=NC4CCCCC4N3)n[nH]c2c1 (stereo not drawn) [NDS100279, 3-(3a,4,5,6,7,7a-hexahydro-1H-benzo[d]imidazol-2-yl)-1H-indazole]",10.45 (1.6) ng/ml,14.57 (3.0) ng/ml,,,,,,,,,,,21.45 (0.9) ng/ml,,,
"Clc1ccc2[nH]nc(C3=NC4CCCCC4N3)c2c1 (stereo not drawn) [NDS100281, 5-chloro-3-(3a,4,5,6,7,7a-hexahydro-1H-benzo[d]imidazol-2-yl)-1H-indazole]",14.73 (0.5) ng/ml,16.91 (0.1) ng/ml,,,,,,,,,,,20.85 (0.8) ng/ml,,,
"CCn1nc(C2=NCCN2)c2cc(Cl)ccc21 [NDS100282, 5-Chloro-3-(4,5-dihydro-1H-imidazol-2-yl)-1-ethyl-1H-indazole]",13.02 (0.3) ng/ml,18.73 (1.0) ng/ml,,71.71,,56.4 μl/min/mg of protein,33.27,202,,,,,33.15 (0.7) ng/ml,,,> 10
"Clc1ccc2c(c1)c(C1=NCCN1)nn2Cc1ccccc1 [NDS100283, 1-Benzyl-5-chloro-3-(4,5-dihydro-1H-imidazol-2-yl)-1H-indazole]",11.35 (1.0) ng/ml,20.08 (0.8) ng/ml,,86.02,No inhibition,145.5 μl/min/mg of protein,19.09,113,,,,,50.45 (3.8) ng/ml,,,

# Reference: US9737510B2, “Indazole compounds and a process for the preparation thereof” (Council of Scientific & Industrial Research, priority 2013, dated 2017)
